Patent EP4667464A1 (Cyrus Therapeutics Inc., priority 2023, dated 2024)
Like-named read-outs stand apart in the source and are kept apart here.

How the values were obtained:
[1] = system: lung cancer cell line NCI-H358 having the KRAS G12C variant; assay: Cancer cell growth inhibition, 3D spheroids (CellTiter-Glo 3D); format: cell-based; settings: Homo sapiens, NCI-H358, 120 h, read-out: H358 cell viability
Procedure: Thereafter, the plate with the cells cultured was adapted to room temperature for 10 minutes, and then 50 µL of CellTiter-Glo® 3D Cell Viability Assay (PROMEGA, G9683) solution was dispensed, and reacted on a horizontal stirrer at a speed of 300 RPM for 30 minutes to induce the cell lysis. […] Thereafter, based on the measured values, the degree of cell growth in the well treated with each compound was calculated when the final cell density value of the well not treated with the test substance was set to 100%.

SOS1 = target: T1, SOS1 (Homo sapiens, UniProt Q07889); assay: SOS-catalyzed nucleotide exchange assay (HTRF, SOS1-mediated GTP loading of KRAS G12D); format: biochemical
T1 construct: HIS-SOS1cat (160 nM; Cytoskeleton, US); His (N); purchased Cytoskeleton
T1 sequence (Q07889 564-1049 limits assumed): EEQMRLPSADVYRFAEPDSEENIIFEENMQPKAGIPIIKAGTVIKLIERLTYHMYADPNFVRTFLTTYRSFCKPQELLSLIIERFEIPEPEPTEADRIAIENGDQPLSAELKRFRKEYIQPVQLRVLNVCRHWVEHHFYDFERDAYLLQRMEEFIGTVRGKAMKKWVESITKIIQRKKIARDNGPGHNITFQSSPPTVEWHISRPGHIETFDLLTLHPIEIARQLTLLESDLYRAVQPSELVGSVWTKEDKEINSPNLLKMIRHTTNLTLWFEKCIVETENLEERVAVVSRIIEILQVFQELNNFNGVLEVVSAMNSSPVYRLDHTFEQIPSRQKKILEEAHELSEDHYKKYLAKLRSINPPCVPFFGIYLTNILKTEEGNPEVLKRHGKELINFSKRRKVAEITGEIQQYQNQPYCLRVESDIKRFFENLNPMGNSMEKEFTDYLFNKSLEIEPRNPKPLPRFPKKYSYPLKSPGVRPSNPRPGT

KRAS G12C::SOS1 = target: T2, KRAS G12C::SOS1 (Homo sapiens, UniProt Q07889); assay: KRAS G12C::SOS1 protein-protein interaction (PPI) inhibition assay (HTRF); format: binding
T2 construct: purchased CISBIO 64KRASG12PEH
T2 sequence (Q07889 1-1333): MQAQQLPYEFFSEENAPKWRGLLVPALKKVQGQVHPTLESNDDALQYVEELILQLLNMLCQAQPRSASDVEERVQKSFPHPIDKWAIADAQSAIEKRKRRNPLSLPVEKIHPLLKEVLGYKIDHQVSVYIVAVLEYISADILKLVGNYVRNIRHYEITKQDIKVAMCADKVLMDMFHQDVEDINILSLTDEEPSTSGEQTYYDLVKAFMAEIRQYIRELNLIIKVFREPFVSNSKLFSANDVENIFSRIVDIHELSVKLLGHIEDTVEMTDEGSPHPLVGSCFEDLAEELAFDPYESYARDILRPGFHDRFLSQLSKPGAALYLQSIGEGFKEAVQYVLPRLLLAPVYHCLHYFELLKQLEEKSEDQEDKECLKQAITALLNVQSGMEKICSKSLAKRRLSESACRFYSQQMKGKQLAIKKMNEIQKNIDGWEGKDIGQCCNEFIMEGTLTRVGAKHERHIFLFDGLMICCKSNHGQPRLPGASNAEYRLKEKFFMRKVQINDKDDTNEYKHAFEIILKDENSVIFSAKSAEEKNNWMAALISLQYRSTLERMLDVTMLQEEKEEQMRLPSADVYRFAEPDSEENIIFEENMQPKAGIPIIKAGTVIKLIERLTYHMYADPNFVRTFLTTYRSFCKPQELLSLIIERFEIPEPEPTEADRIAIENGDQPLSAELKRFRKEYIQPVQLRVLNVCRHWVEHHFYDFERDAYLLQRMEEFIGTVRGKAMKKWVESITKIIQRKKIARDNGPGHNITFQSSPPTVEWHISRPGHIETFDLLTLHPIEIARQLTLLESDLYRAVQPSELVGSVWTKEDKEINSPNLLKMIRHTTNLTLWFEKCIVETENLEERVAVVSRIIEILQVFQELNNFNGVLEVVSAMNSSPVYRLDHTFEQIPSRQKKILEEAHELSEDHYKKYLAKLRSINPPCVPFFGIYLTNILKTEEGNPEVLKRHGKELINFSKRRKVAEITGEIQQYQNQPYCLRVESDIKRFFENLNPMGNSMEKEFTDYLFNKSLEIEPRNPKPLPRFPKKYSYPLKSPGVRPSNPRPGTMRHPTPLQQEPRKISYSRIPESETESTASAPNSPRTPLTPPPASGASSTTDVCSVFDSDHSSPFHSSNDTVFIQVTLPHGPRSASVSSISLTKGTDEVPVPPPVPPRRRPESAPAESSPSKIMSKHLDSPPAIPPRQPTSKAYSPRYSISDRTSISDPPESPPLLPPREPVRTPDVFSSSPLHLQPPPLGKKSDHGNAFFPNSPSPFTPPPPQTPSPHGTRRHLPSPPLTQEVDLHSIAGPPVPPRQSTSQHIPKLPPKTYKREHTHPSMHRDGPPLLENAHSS
In short: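 Compounds, at eight 3-fold dilutions from 3 µM, were mixed with GTP-loaded Tag1-KRAS G12C, Tag2-SOS1 and a terbium-cryptate donor plus XL665 acceptor antibody pair. After 2 h at room temperature, time-resolved FRET reported the KRAS–SOS1 interaction.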

[2] = 3D spheroids, 0.002-10 µM, 5 days
[3] = GST-KRAS G12D, HIS-SOS1cat, compound 128 pM to 10 µM, read-out: SOS-catalyzed nucleotide exchange assay
[4] = 8 concentrations from 3 µM, three replicates, read-out: KRAS G12C::SOS1 PPI

IC50 [1, 2] [nM]	IC50 (SOS1; [3]) [nM]	IC50 (KRAS G12C::SOS1; [4]) [nM]	SMILES	IC50 [1] [nM]	IC50 (SOS1) [nM]	IC50 (KRAS G12C::SOS1) [nM]
–	–	–	C[C@@H](NC(=O)c1ccc(=O)n(-c2cncc(-c3cnnn3C)c2)n1)c1cccc(C(F)(F)CO)c1F [Example 1, N-[(1R)-1-[3-(1,1-difluoro-2-hydroxy-ethyl)-2-fluoro-phenyl]ethyl]-1-[5-(3-methyltriazol-4-yl)-3-pyridyl]-6-oxo-pyridazine-3-carboxamide]	< 1000	< 50	< 50
< 1000	50 to 150	< 50	C[C@@H](NC(=O)c1ccc(=O)n(-c2cncc(-c3cnnn3C)c2)n1)c1cccc(C(F)F)c1F [Example 1-1, N-[(1R)-1-[3-(difluoromethyl)-2-fluoro-phenyl]ethyl]-1-[5-(3-methyltriazol-4-yl)-3-pyridyl]-6-oxo-pyridazine-3-carboxamide]	–	–	–
> 3000	50 to 150	< 50	[2H]C([2H])([2H])n1nncc1-c1cncc(-n2nc(C(=O)N[C@H](C)c3cc(N)cc(C(F)F)c3)ccc2=O)c1 [Example 1-4, N-[(1R)-1-[3-amino-5-(difluoromethyl)phenyl]ethyl]-6-oxo-1-[5-[3-(trideuteriomethyl)triazol-4-yl]-3-pyridyl]pyridazine-3-carboxamide]	–	–	–
< 1000	–	–	[2H]C([2H])([2H])n1nncc1-c1cncc(-n2nc(C(=O)N[C@H](C)c3cccc(C(F)(F)F)c3F)ccc2=O)c1 [Example 1-5, N-[(1R)-1-[2-fluoro-3-(trifluoromethyl)phenyl]ethyl]-6-oxo-1-[5-[3-(trideuteriomethyl)triazol-4-yl]-3-pyridyl]pyridazine-3-carboxamide]	–	–	–
> 3000	50 to 150	< 50	[2H]C([2H])([2H])n1nncc1-c1cncc(-n2nc(C(=O)N[C@H](C)c3cccc(C(F)F)c3F)ccc2=O)c1 [Example 1-6, N-[(1R)-1-[3-(difluoromethyl)-2-fluoro-phenyl]ethyl]-6-oxo-1-[5-[3-(trideuteriomethyl)triazol-4-yl]-3-pyridyl]pyridazine-3-carboxamide]	–	–	–
< 1000	< 50	< 50	[2H]C([2H])([2H])n1nncc1-c1cncc(-n2nc(C(=O)N[C@H](C)c3cccc(C(F)(F)CO)c3F)ccc2=O)c1 [Example 1-7, N-[(1R)-1-[3-(1,1-difluoro-2-hydroxy-ethyl)-2-fluoro-phenyl]ethyl]-6-oxo-1-[5-[3-(trideuteriomethyl)triazol-4-yl]-3-pyridyl]pyridazine-3-carboxamide]	–	–	–
< 1000	< 50	< 50	C[C@@H](NC(=O)c1ccc(=O)n(-c2cncc(-c3cnnn3C)c2)n1)c1cc(N)cc(C(F)(F)F)c1 [Example 1-9, N-[(1R)-1-[3-amino-5-(trifluoromethyl)phenyl]ethyl]-1-[5-(3-methyltriazol-4-yl)-3-pyridyl]-6-oxo-pyridazine-3-carboxamide]	–	–	–
< 1000	50 to 150	50 to 150	C[C@@H](NC(=O)c1ccc(=O)n(-c2cncc(-c3cnnn3C)c2)n1)c1cccc(C(C)(F)F)c1F [Example 1-11, N-[(1R)-1-[3-(1,1-difluoroethyl)-2-fluoro-phenyl]ethyl]-1-[5-(3-methyltriazol-4-yl)-3-pyridyl]-6-oxo-pyridazine-3-carboxamide]	–	–	–
< 1000	< 50	50 to 150	CCn1nncc1-c1cncc(-n2nc(C(=O)N[C@H](C)c3cccc(C(F)(F)F)c3F)ccc2=O)c1 [Example 1-12, N-[(1R)-1-[2-fluoro-3-(trifluoromethyl)phenyl]ethyl]-1-[5-(3-ethyltriazol-4-yl)-3-pyridyl]-6-oxo-pyridazine-3-carboxamide]	–	–	–
< 1000	< 50	< 50	Cc1cc(C(=O)N[C@H](C)c2cccc(C(F)F)c2F)nn(-c2cncc(-c3cnnn3C)c2)c1=O [Example 1-15, N-[(1R)-1-[3-(difluoromethyl)-2-fluoro-phenyl]ethyl]-5-methyl-1-[5-(3-methyltriazol-4-yl)-3-pyridyl]-6-oxo-pyridazine-3-carboxamide]	–	–	–
< 1000	50 to 150	> 150	C[C@@H](NC(=O)c1ccc(=O)n(-c2cncc(-c3ccnn3C)c2)n1)c1cccc(C(F)(F)F)c1F [Example 1-17, N-[(1R)-1-[2-fluoro-3-(trifluoromethyl)phenyl]ethyl]-1-[5-(2-methylpyrazol-3-yl)-3-pyridyl]-6-oxo-pyridazine-3-carboxamide]	–	–	–
> 3000	50 to 150	> 150	C[C@@H](NC(=O)c1ccc(=O)n(-c2cnnc(-c3ccnn3C)c2)n1)c1cccc(C(F)(F)CO)c1F [Example 1-20, N-[(1R)-1-[3-(1,1-difluoro-2-hydroxy-ethyl)-2-fluoro-phenyl]ethyl]-1-[6-(2-methylpyrazol-3-yl)pyridazin-4-yl]-6-oxo-pyridazine-3-carboxamide]	–	–	–
< 1000	< 50	< 50	Cc1cc(C(=O)N[C@H](C)c2cccc(C(F)(F)CO)c2F)nn(-c2cncc(-c3cnnn3C)c2)c1=O [Example 1-23, N-[(1R)-1-[3-(1,1-difluoro-2-hydroxy-ethyl)-2-fluoro-phenyl]ethyl]-5-methyl-1-[5-(3-methyltriazol-4-yl)-3-pyridyl]-6-oxo-pyridazine-3-carboxamide]	–	–	–
> 3000	–	> 150	C[C@@H](NC(=O)c1ccc(=O)n(-c2cncc(-c3cnnn3C)c2)n1)c1cccc(C2(C)CC2)c1F [Example 1-33, N-[(1R)-1-[2-fluoro-3-(1-methylcyclopropyl)phenyl]ethyl]-1-[5-(3-methyltriazol-4-yl)-3-pyridyl]-6-oxo-pyridazine-3-carboxamide]	–	–	–
< 1000	–	–	[2H]C([2H])([2H])[C@@]([2H])(NC(=O)c1ccc(=O)n(-c2cncc(-c3cnnn3C)c2)n1)c1cccc(C(F)(F)F)c1F [Example 22, (R)-N-(1-(2-fluoro-3-(trifluoromethyl)phenyl)ethyl-1,2,2,2-tetradeuterio)-1-(5-(1-methyl-1H-1,2,3-triazol-5-yl)pyridin-3-yl)-6-oxo-1,6-dihydropyridazine-3-carboxamide]	–	–	–
–	–	–	C[C@@H](NC(=O)c1ccc(=O)n(-c2cncc(-c3cnnn3[C@@H]3CC3(F)F)c2)n1)c1cccc(C(F)(F)F)c1F [Example 24, 1-[5-[3-[(1R)-2,2-difluorocyclopropyl]triazol-4-yl]-3-pyridyl]-N-[(1R)-1-[2-fluoro-3-(trifluoromethyl)phenyl]ethyl]-6-oxo-pyridazine-3-carboxamide]	–	50 to 150	> 150
